Laboratory results from patent US8134015B2, “Compound inhibiting in vivo phosphorous transport and medicine containing the same” (Kyowa Hakko Kirin Co., Ltd., priority 2003, dated 2012).
Where a name gives a salt, the structure may show the parent alone.

biological target: T1, rat NaPi-2b (Rattus norvegicus, UniProt Q9JJ09); experiment: Sodium-dependent phosphate uptake of Xenopus oocytes which expressed NaPi-2b (32P); assay type: cell-based; conditions: Xenopus oocytes expressing rat NaPi-2b, 32P radioactive phosphorus; read-out: IC50 (phosphate uptake inhibitory activity)
T1 construct: expressed in transfected cells; host or cells: Xenopus oocytes injected with cRNA
T1 sequence (Q9JJ09 1-695): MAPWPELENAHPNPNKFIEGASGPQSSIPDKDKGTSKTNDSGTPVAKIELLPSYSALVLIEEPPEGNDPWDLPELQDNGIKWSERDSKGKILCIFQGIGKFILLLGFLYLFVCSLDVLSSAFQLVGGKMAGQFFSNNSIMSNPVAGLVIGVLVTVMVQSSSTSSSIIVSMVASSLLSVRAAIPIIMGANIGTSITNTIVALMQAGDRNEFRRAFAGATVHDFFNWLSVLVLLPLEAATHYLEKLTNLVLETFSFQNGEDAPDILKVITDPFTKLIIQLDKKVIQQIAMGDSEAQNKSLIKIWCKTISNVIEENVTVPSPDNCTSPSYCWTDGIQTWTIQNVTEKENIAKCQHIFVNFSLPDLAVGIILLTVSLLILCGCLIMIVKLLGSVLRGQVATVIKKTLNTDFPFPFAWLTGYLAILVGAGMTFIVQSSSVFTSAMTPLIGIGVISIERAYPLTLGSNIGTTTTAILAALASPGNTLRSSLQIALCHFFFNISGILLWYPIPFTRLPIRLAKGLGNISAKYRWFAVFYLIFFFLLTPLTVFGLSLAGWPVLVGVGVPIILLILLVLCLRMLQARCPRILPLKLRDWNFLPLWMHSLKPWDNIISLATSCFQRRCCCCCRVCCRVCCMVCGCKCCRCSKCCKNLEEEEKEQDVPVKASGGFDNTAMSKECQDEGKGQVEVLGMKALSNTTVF
Outline: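 Read-out is 32P phosphate uptake into Xenopus oocytes expressing rat intestinal NaPi-2b (cRNA injection, 2-day culture). Inhibition at 300 μM and 100 μM was derived from a single inhibition curve and given as percent.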

| Compound | IC50 [µM] |
| --- | --- |
| COc1ccc(/C=N/NC(=O)c2c(C)csc2NC(=O)c2cccc(CN3CCN(CCO)CC3)c2)cc1 [Compound 580, 3-[4-(2-Hydroxy-ethyl)-piperazin-1-ylmethyl]-N-[3-(4-methoxy-benzylidene-hydrazinocarbonyl)-4-methyl-thiophen-2-yl]-benzamide] | < 3 |
| Cc1ccc(/C=N/NC(=O)c2cc(Br)ccc2NC(=O)c2ccc(CNCCCN(C)c3ccccc3)cc2)cc1C [Compound 757, N-[4-Bromo-2-(3,4-dimethyl-benzylidene-hydrazinocarbonyl)-phenyl]-4-{[3-(methyl-phenyl-amino)-propylamino]-methyl}-benzamide] | 18.8 |
| COc1ccc(C(=O)Nc2ccccc2C(=O)N/N=C/c2ccc(O)c(C)c2)cc1OC [Compound 42, N-[2-(4-Hydroxy-3-methyl-benzylidene-hydrazinocarbonyl)-phenyl]-3,4-dimethoxy-benzamide] | 8.21 |
| CCN(CC)CCN(C)Cc1cccc(C(=O)Nc2ccc(Cl)cc2C(=O)N/N=C/c2ccc(OC)cc2)c1 [Compound 386, N-[4-Chloro-2-(4-methoxy-benzylidene-hydrazinocarbonyl)-phenyl]-3-{[(2-diethylamino-ethyl)-methyl-amino]-methyl}-benzamide] | < 3 |
| Cc1ccc(/C=N/NC(=O)c2c(NC(=O)c3cccc(CN(CC(C)O)CC(C)O)c3)sc3c2CCC3)cc1C (centres unmarked) [Compound 804, 3-{[Bis-(2-hydroxy-propyl)-amino]-methyl}-N-[3-(3,4-dimethyl-benzylidene-hydrazinocarbonyl)-5,6-dihydro-4H-cyclopenta[b]thiophen-2-yl]-benzamide] | 1.23 |
| CCN(CC)CCN(CCN(CC)CC)Cc1cccc(C(=O)Nc2ccc(N3CCCCC3)cc2C(=O)N/N=C/c2ccc(C)cc2)c1 [Compound 906, 3-{[Bis-(2-diethylamino-ethyl)-amino]-methyl}-N-[2-(4-methyl-benzylidene-hydrazinocarbonyl)-4-piperidin-1-yl-phenyl]-benzamide] | 1.83 |
| COc1cc(/C=N/NC(=O)c2ccccc2NC(=O)c2ccc(OC)c(OC)c2)ccc1O [Compound 11, N-[2-(4-Hydroxy-3-methoxy-benzylidene-hydrazinocarbonyl)-phenyl]-3,4-dimethoxy-benzamide] | 8.21 |
| CCN(CC)CCN(C)Cc1cccc(C(=O)Nc2sc3c(c2C(=O)N/N=C/c2ccc(F)cc2)CCCC3)c1 [Compound 611, 3-{[(2-Diethylamino-ethyl)-methyl-amino]-methyl}-N-[3-(4-fluoro-benzylidene-hydrazinocarbonyl)-4,5,6,7-tetrahydro-benzo-[b]thiophen-2-yl]-benzamide] | 2.16 |
| Cc1ccc(/C=N/NC(=O)c2cc(Br)ccc2NC(=O)c2cccc(CSc3nc[nH]n3)c2)cc1 [Compound 268, N-[4-Bromo-2-(4-methyl-benzylidene-hydrazinocarbonyl)-phenyl]-3-(1H-[1,2,4]triazol-3-ylsulfanylmethyl)-benzamide] | 1.02 |
| O=C(Nc1ccc(Br)cc1C(=O)N/N=C/c1ccc(F)cc1)c1ccc(CSCCCO)cc1 [Compound 276, N-[4-Bromo-2-(4-fluoro-benzylidene-hydrazinocarbonyl)-phenyl]-4-(3-hydroxy-propylsulfanylmethyl)-benzamide] | 6.2 |
| COc1ccc(/C=N/NC(=O)c2c(C)csc2NC(=O)c2cccc(CN3CCC4(CC3)OCCO4)c2)cc1 [Compound 837, 3-(1,4-Dioxa-8-aza-spiro[4,5]dec-8-ylmethyl]-N-[3-(4-methoxy-benzylidene-hydrazinocarbonyl)-4-methyl-thiophen-2-yl]-benzamide] | 12.9 |
| COc1ccc(/C=N/NC(=O)c2cc(Cl)ccc2NC(=O)c2ccc(OC)c(OC)c2)cc1Br [Compound 98, N-[2-(3-Bromo-4-methoxy-benzylidene-hydrazinocarbonyl)-4-chloro-phenyl]-3,4-dimethoxy-benzamide] | 0.62 |
| Cc1ccc(/C=N/NC(=O)c2cc(Br)ccc2NC(=O)c2ccncc2)cc1 [Compound 169, N-[4-Bromo-2-(4-methyl-benzylidene-hydrazinocarbonyl)-phenyl]-isonicotinamide] | 4.24 |
| C/C(=N\NC(=O)c1cc(Cl)ccc1NC(=O)c1cccnc1)c1ccc(C)cc1 [Compound 217, N-[4-Chloro-2-(1-p-toluyl-ethylidene-hydrazinocarbonyl)-phenyl]-nicotinamide] | 11.2 |
| CC(O)CN(Cc1cccc(C(=O)Nc2ncccc2C(=O)N/N=C/c2ccc(Cl)c(C(F)(F)F)c2)c1)CC(C)O (centres unmarked) [Compound 967, 3-{[Bis-(2-hydroxy-propyl)-amino]-methyl}-N-[3-(4-chloro-3-trifluoromethyl-benzylidene-hydrazinocarbonyl)-pyridin-2-yl]-benzamide] | 6.57 |
| CCN(CC)CCN(C)Cc1cccc(C(=O)Nc2ccc(Cl)cc2C(=O)N/N=C/c2cccc(OC)c2)c1 [Compound 385, N-[4-Chloro-2-(3-methoxy-benzylidene-hydrazinocarbonyl)-phenyl]-3-{[(2-diethylamino-ethyl)-methyl-amino]-methyl}-benzamide] | 0.31 |
| Cc1ccc(/C=N/NC(=O)c2cc(I)ccc2NC(=O)c2cccc(CN3CCC(N4CCCCC4)CC3)c2)cc1C [Compound 486, 3-[1,4′]Bipiperidinyl-1′-ylmethyl-N-[2-(3,4-dimethyl-benzylidene-hydrazinocarbonyl)-4-iodo-phenyl]-benzamide] | < 3 |
| COc1ccc(/C=N/NC(=O)c2c(C)csc2NC(=O)c2cccc(CN(CC(C)O)CC(C)O)c2)cc1 (centres unmarked) [Compound 852, 3-{[Bis-(2-hydroxy-propyl)-amino]-methyl}-N-[3-(4-methoxy-benzylidene-hydrazinocarbonyl)-4-methyl-thiophen-2-yl]-benzamide; hydrochloride] | < 1 |
| O=C(Nc1ccc(Br)cc1C(=O)N/N=C/c1ccc(Cl)cc1)c1ccc(F)cc1 [Compound 108, N-[4-Bromo-2-(4-chloro-benzylidene-hydrazinocarbonyl)-phenyl]-4-fluoro-benzamide] | 3.83 |
| CN(C)CCn1nnnc1SCc1cccc(C(=O)Nc2ccc(Cl)cc2C(=O)N/N=C/c2cccc(F)c2)c1 [Compound 462, N-[4-Chloro-2-(3-fluoro-benzylidene-hydrazinocarbonyl)-phenyl]-3-[1-(2-dimethylamino-ethyl)-1H-tetrazol-5-ylsulfanylmethyl]-benzamide] | < 3 |
| O=C(Nc1ccc(Br)cc1C(=O)N/N=C/c1ccc(Cl)c(C(F)(F)F)c1)c1cccc(C[S+]([O-])CCO)c1 (centres unmarked) [Compound 679, N-[4-Bromo-2-(4-chloro-3-trifluoromethyl-benzylidene-hydrazinocarbonyl)-phenyl]-3-(2-hydroxy-ethanesulfinylmethyl)-benzamide] | < 3 |
| COc1ccc(C(=O)Nc2ccc(I)cc2C(=O)N/N=C/c2ccc(Cl)c(C(F)(F)F)c2)cc1OC [Compound 209, N-[2-(4-Chloro-3-trifluoromethyl-benzylidene-hydrazinocarbonyl)-4-iodo-phenyl]-3,4-dimethoxy-benzamide] | < 1 |

same assay, conditions: phosphate uptake, oocytes expressing rat NaPi-2b; 300 μM, determined from inhibition curve

| Compound | inhibition at 300 µM [%] |
| --- | --- |
| Cc1cccc(/C=N/NC(=O)c2cc(Br)ccc2NC(=O)c2ccc(CN3CCC(CCO)CC3)cc2)c1 [Compound 742, N-[4-Bromo-2-(3-methyl-benzylidene-hydrazinocarbonyl)-phenyl]-4-[4-(2-hydroxy-ethyl)-piperidin-1-ylmethyl]-benzamide] | 77.6 |
